Test results: publication PMC7719179, “Small molecule inhibition of Dynamin-dependent endocytosis targets multiple niche signals and impairs leukemia stem cells” (Nature Communications, 2020)
Where “and” joins values, the source holds several entries; their conditions need not be identical. Identical values can stand only once.

Legend:
[1] = system: Hes1 in leukemic DN3a cells from primary Lmo2^Tg T-ALL; experiment: Notch1 (DL1)-induced Hes1 in leukemic DN3a cells from primary Lmo2^Tg T-ALL; format: cell-based, mouse
Method: (§1) Phosphoflow analysis was performed as previously described. Briefly, 2 × 10^6 cells stained for surface markers were subsequently resuspended into PBS 1× + 4% v/v paraformaldehyde and incubated for 10 min at 4 °C for fixation. Fixed cells were washed twice using PBS 1×, then resuspended in pre-chilled at −20 °C Perm Buffer III (BD Pharmingen) and incubated 30 min at 4 °C for permeabilization. Cells were washed twice using PBS 1× and incubated overnight at 4 °C in PBS 1× + 2% v/v fetal calf serum (FCS) with Cell Signalling purified antibodies (Genesearch Pty Ltd, Arundel QLD, Australia) against pSTAT5 (Tyr694; #9359), phospho-p38 MAPK (Thr180/Tyr182; #4511), phospho-p44/42 (Erk1/2; #9102), phospho-S6 (Ser235/236; #4856) and phospho-Akt (Ser473; #9271) or isotype control. For intracellular HES1 detection, cells stained for surface markers were subsequently fixed and permeabilized using the BD Cytofix/Cytoperm^TM Kit and incubated overnight at 4 °C in PBS 1× + 2% v/v FCS with a purified antibody against HES1 (D6PU; #11988, Cell Signalling) or isotype control. After staining with primary antibodies for phosphoflow or intracellular detection, cells were incubated in permeabilization buffer with donkey Alexa Fluor 488-conjugated anti-rabbit secondary antibody (A-21206, lot #1910751, Molecular Probes, Invitrogen) or goat Alexa Fluor 546-conjugated anti-rabbit secondary antibody (A-11035, lot #1904467, Molecular Probes, Invitrogen) for 1 h on ice, and washed twice in PBS 1×. Fluorescence-activated cell sorting (FACS) analysis was performed using LSRII and LSR Fortessa cytometers, following the gating strategies described in Supplementary Fig. 11. Cell sorting was performed with a FACSAria or BD Influx.
For in vitro NOTCH1 signalling activation assays, cells were seeded on OP9 and OP9-DL1 stromal cell lines as described in the co-culture assays section and incubated overnight with either Dynole 34-2 or Ruxolitinib or DAPT resuspended in DMSO. Harvested cells were washed twice using cold PBS 1× and incubated with 25 ng/mL Rat IgG (Sigma-Aldrich Pty Ltd, Castle Hill NSW, Australia) with a PE-conjugated antibody for detection of NOTCH1 for 1 h on ice, as described in the FACS analysis section. PE-conjugated isotype was used as negative control. Cells were washed twice, fixed and analysed for intracellular HES1 detection by flow cytometry as described in the FACS analysis section. The analysis was performed in triplicate and the MFI observed in thymocytes co-cultured on OP9 cells was reported as 100%.

[2] = system: pStat5, Hes1, p-Erk, p-p38, p-S6, p-Akt in Lmo2^Tg DN3a cells; experiment: Growth factor-mediated signalling effectors in co-cultured Lmo2^Tg DN3a cells (flow cytometry); format: cell-based, mouse
Method: as §1

DN3a thymocytes = experiment: Relative viability and LC50 on DN3a thymocytes of WT, Lmo2^Tg, Lmo2^Tg;STAT5-CA^Tg and Lmo2^Tg;N1-ICD^Tg mice, 48 h
Method: Pre-leukemic and leukemic thymocytes were purified by flow cytometry and co-cultured on GFP-positive OP9 and OP9-DL1 stromal cell lines, as described previously. Thymocytes were co-cultured in reconstituted alpha-MEM medium (#12318, Gibco, Grand Island NY, USA) supplemented with 20% FCS (#12318), HEPES 10 mM (#15630-080), sodium pyruvate 1 mM (#11360-070), β-mercaptoethanol 55 μM (#21985-023), Glutamax 2 mM (#15750-060), 1% Penicillin/Streptomycin (#15140-122), 5 ng/mL rmFLT-3 ligand (#250-31 L, Pepro Tech), 5 ng/mL rmIL-7 (#217-17, Pepro Tech) and 25 ng/mL rmSCF (#250-03, Pepro Tech). After 48 h of co-culture, thymocytes were counted and analysed by FACS. […]
viability of wild-type (WT), Lmo2 Tg, Lmo2Tg;STAT5-CA Tg and Lmo2Tg;N1-ICD Tg DN3a thymocytes […]
normalized to cells treated with vehicle (%DMSO). Mean ± SEM of n=4 biological replicates. b, […]
thymocytes from 6-week old wild-type (WT), Lmo2 Tg, Lmo2Tg;STAT5-CATg and Lmo2Tg ;N1-ICD Tg mice. Mean ± SD of n=4 biological replicates are shown. 2-way ANOVA with Tukey’s correction test; […]
(1 picture or pasted object on this page, not shown here)
*P<0.05, *** P<0.001 compared to WT; #P<0.05, ##P<0.01, ###P<0.001 compared to L mo2Tg. c, Levels of pStat5 (left) after stimulation with IL-7 , as well as Hes1 expression (right) after co-culture on OP9- […]
(0.2 µM), Ruxolitinib (0.2 µM) and DAPT (0.1 µM). Unstimulated cells were used as negative controls (dashed line). Student’s t -test, ** P<0.01, *** P<0.001 compared to unstimulated cells. MFI ± SEM, 1-way ANOVA with Tukey’s correction test; **P<0.01, *** P<0.001 compared to vehicle. d, Clonogenic assay of normal murine hematopoietic stem and progenitor cells (HSPCs) cultured in the presence […]
± SD, Student’s t -test ( n=4) **P<0.01 compared to vehicle. e, Relative viability of wild-type (WT), […]
2 (0.2 µM), Ruxolitinib (0.2 µM) and DAPT (0.1 µM) for 48 hours. Viability was normalized to cells treated with vehicle (%DMSO, which was reported as 100). Mean ± SEM, 2-way ANOVA with Tukey’s correction test, **P<0.01, *** P<0.001 compared to vehicle.

[3] = leukemic DN3a cells of TALL249, Notch1 (DL1) stimulation
[4] = leukemic DN3a cells of TALL257, Notch1 (DL1) stimulation
[5] = leukemic DN3a cells of TALL273, Notch1 (DL1) stimulation
[6] = leukemic DN3a cells of TALL582, Notch1 (DL1) stimulation
[7] = leukemic DN3a cells of TALL588, Notch1 (DL1) stimulation
[8] = leukemic DN3a cells of TALL742, Notch1 (DL1) stimulation
[9] = Supplementary Figure 2c, unstimulated and vehicle controls in the same table
[10] = Lmo2^Tg DN3a cells co-cultured on OP9-DL1 with cytokines, individual animals

C[C@H](NC(=O)Cc1cc(F)cc(F)c1)C(=O)N[C@H](C(=O)OC(C)(C)C)c1ccccc1 [DAPT, N-[N-(3,5-Difluorophenacetyl)-L-alanyl]-S-phenylglycine t-butyl ester]
Hes1 (MFI) [1, 3]: 6973 MFI
Hes1, FOLD over unstimulated [1, 3]: 0.92 fold
Hes1 (MFI) [1, 4]: 4801 MFI
Hes1, FOLD over unstimulated [1, 4]: 0.84 fold
Hes1 (MFI) [1, 5]: 7737 MFI
Hes1, FOLD over unstimulated [1, 5]: 0.92 fold
Hes1 (MFI) [1, 6]: 5294 MFI
Hes1, FOLD over unstimulated [1, 6]: 0.98 fold
Hes1 (MFI) [1, 7]: 6134 MFI
Hes1, FOLD over unstimulated [1, 7]: 1.12 fold
Hes1 (MFI) [1, 8]: 7313 MFI
Hes1, FOLD over unstimulated [1, 8]: 0.93 fold
Hes1 (MFI) [2, 9]: 1314 MFI and 1222 MFI and 1307 MFI
fold resistance of Lmo2^Tg;N1-ICD^Tg DN3a cells vs Lmo2^Tg thymocytes (DN3a thymocytes; LC50 comparison, 48 h): 9 fold
Survival (% DMSO) (DN3a thymocytes; Lmo2Tg): 17.19 % DMSO and 25.07 % DMSO and 13.99 % DMSO
Relative % viable cells (DN3a thymocytes; Lmo2Tg DN3a thymocytes, dose 0.02 mM (so in the source)): 79.43% and 55.29% and 67.53%
Relative % viable cells (DN3a thymocytes; Lmo2Tg DN3a thymocytes, dose 0.1 mM (so in the source)): 25.07% and 13.99% and 17.19%
Relative % viable cells (DN3a thymocytes; Lmo2Tg DN3a thymocytes, dose 0.5 mM (so in the source)): 5.42% and 10.32% and 11.23%
Relative % viable cells (DN3a thymocytes; Lmo2Tg DN3a thymocytes, dose 2.5 mM (so in the source)): 5.22% and 9.91% and 8.68%
Relative % viable cells (DN3a thymocytes; Lmo2Tg DN3a thymocytes, dose 12.5 mM (so in the source)): 5.76% and 9.27% and 6.48%
Survival (% DMSO) (DN3a thymocytes; Lmo2Tg;Notch1Tg): 55.35 % DMSO and 68.13 % DMSO and 61.12 % DMSO and 65.99 % DMSO
Relative % viable cells (DN3a thymocytes; Lmo2Tg;Notch1Tg DN3a thymocytes, dose 0.02 mM (so in the source)): 68.73% and 83.56% and 62.24% and 87.12%
Relative % viable cells (DN3a thymocytes; Lmo2Tg;Notch1Tg DN3a thymocytes, dose 0.1 mM (so in the source)): 55.35% and 68.13% and 61.12% and 65.99%
Relative % viable cells (DN3a thymocytes; Lmo2Tg;Notch1Tg DN3a thymocytes, dose 0.5 mM (so in the source)): 52.22% and 56.33% and 58%
Survival (% DMSO) (DN3a thymocytes; Lmo2Tg;STAT5-CATg): 52.45 % DMSO and 51.11 % DMSO and 34.78 % DMSO
Relative % viable cells (DN3a thymocytes; Lmo2Tg;STAT5-CATg DN3a thymocytes, dose 0.02 mM (so in the source)): 76.45% and 84.74% and 59.85%
Relative % viable cells (DN3a thymocytes; Lmo2Tg;STAT5-CATg DN3a thymocytes, dose 0.1 mM (so in the source)): 52.45% and 51.11% and 34.78%
Relative % viable cells (DN3a thymocytes; Lmo2Tg;STAT5-CATg DN3a thymocytes, dose 0.5 mM (so in the source)): 38.67% and 42.63% and 42.16%
Relative % viable cells (DN3a thymocytes; Lmo2Tg;STAT5-CATg DN3a thymocytes, dose 2.5 mM (so in the source)): 27.14% and 38.85% and 21.86%
Relative % viable cells (DN3a thymocytes; Lmo2Tg;STAT5-CATg DN3a thymocytes, dose 12.5 mM (so in the source)): 19.43% and 16.58% and 21.18%

CCCCCCCCNC(=O)C(C#N)=Cc1cn(CCCN(C)C)c2ccccc12 [Dynole 34-2, 2-Cyano-N-octyl-3-(1-(3-dimethylaminopropyl)-1H-indol-3-yl)-acrylamide]
Hes1 (MFI) [1, 3]: 7095 MFI
Hes1, FOLD over unstimulated [1, 3]: 0.94 fold
Hes1 (MFI) [1, 4]: 5988 MFI
Hes1, FOLD over unstimulated [1, 4]: 1.05 fold
Hes1 (MFI) [1, 5]: 7679 MFI
Hes1, FOLD over unstimulated [1, 5]: 0.92 fold
Hes1 (MFI) [1, 6]: 5082 MFI
Hes1, FOLD over unstimulated [1, 6]: 0.94 fold
Hes1 (MFI) [1, 7]: 7974 MFI
Hes1, FOLD over unstimulated [1, 7]: 1.46 fold
Hes1 (MFI) [1, 8]: 7594 MFI
Hes1, FOLD over unstimulated [1, 8]: 0.96 fold
Hes1 (MFI) [2, 10]: 5911 MFI and 6176 MFI and 5994 MFI and 6141 MFI
p-Akt (MFI) [2, 10]: 1455 MFI and 2044 MFI and 1472 MFI and 1916 MFI
p-Erk (MFI) [2, 10]: 2822 MFI and 3661 MFI and 3448 MFI and 2830 MFI
p-S6 (MFI) [2, 10]: 4904 MFI and 4987 MFI and 5062 MFI and 5235 MFI
p-p38 (MFI) [2, 10]: 4351 MFI and 3539 MFI and 4397 MFI and 3757 MFI
pStat5 (MFI) [2, 10]: 2745 MFI and 2767 MFI and 2938 MFI and 3210 MFI
Hes1 (MFI) [2, 9]: 1218 MFI and 1199 MFI and 1165 MFI
relative resistance conferred by mutations downstream of DDE (STAT5-CA^Tg, N1-ICD^Tg) vs Lmo2^Tg DN3a (DN3a thymocytes; LC50 comparison, 48 h): 3.4 fold
Relative % viable cells (DN3a thymocytes; Lmo2Tg DN3a thymocytes, dose 0.04 mM (so in the source)): 53.38% and 35.26% and 57.31% and 29.03%
Relative % viable cells (DN3a thymocytes; Lmo2Tg DN3a thymocytes, dose 25 mM (so in the source)): 0%
Relative % viable cells (DN3a thymocytes; Lmo2Tg;Notch1Tg DN3a thymocytes, dose 1 mM (so in the source)): 27.05% and 30.53% and 26.36%
Relative % viable cells (DN3a thymocytes; Lmo2Tg;STAT5-CATg DN3a thymocytes, dose 0.04 mM (so in the source)): 60% and 110.87% and 62.94% and 65.19%
Relative % viable cells (DN3a thymocytes; Lmo2Tg;STAT5-CATg DN3a thymocytes, dose 0.2 mM (so in the source)): 40.03% and 50.05% and 55.36%
Relative % viable cells (DN3a thymocytes; Lmo2Tg;STAT5-CATg DN3a thymocytes, dose 25 mM (so in the source)): 0% and 5.23% and 8.65%
viability at 200 µM (DN3a thymocytes; Mus musculus, Thymocyte, read-out: Relative % viable cells, Lmo2Tg;STAT5-CATg DN3a thymocytes, dose 0.2 mM (so in the source)): 37.5%
Relative % viable cells (DN3a thymocytes; WT DN3a thymocytes, dose 0.04 mM (so in the source)): 81.18% and 50% and 68.95% and 71.06% and 67.17%
Relative % viable cells (DN3a thymocytes; WT DN3a thymocytes, dose 5 mM (so in the source)): 5.59% and 1.77% and 8.44% and 6.33% and 6.38%
Relative % viable cells (DN3a thymocytes; WT DN3a thymocytes, dose 25 mM (so in the source)): 0% and 8.83%
sensitivity of wild-type (WT) DN3a thymocytes relative to pre-LSCs (DN3a thymocytes; WT vs Lmo2^Tg DN3a, result in words): fivefold less sensitive
